What was measured:
[1] = test system: firefly luciferase activity, controlled by cTA2^D-5; test: Dual Tet-system reporter assay, firefly luciferase, HeLa HLRF33/1141 cotransfected with cTA2D-5 and rtTA2s-M24C5G; type: cell-based; conditions: HeLa cells (HLRF33/1141), 24 h incubation, 1 μg/ml
Experimental: (§1) B: Regulatory properties. HeLa cells (HLRF33/1141) were cotransfected with two plasmids encoding the transregulators cTA2^D-5 and rtTA2^s-M24C5G. Reporter gene expression was scored after 24 h incubation with 1 μg/ml of either cmt3 or dox or both. Luciferase activities were determined from cell extracts and represent the means of triplicate samples with standard deviations given in arbitrary light units (ALU; defined as relative light units per mg of total cell protein corrected for transfection efficiency). Expression of Renilla luciferase controlled by rtTA2^s-M24C5G is increased about 1000-fold and only in the presence of dox (columns 3 and 4). Addition of cmt3 leads to a ˜100-fold decrease in firefly luciferase activity, controlled by cTA2^D-5 (columns 2 and 4), while expression of firefly luciferase is only slightly, less than 2-fold, reduced in the presence of dox. […] The regulatory system is thus functional and can be used for target gene expression in NCSCs.
(§2) Recently two transcription factors have been constructed—cTA2^D-5 and rtTA2^s-M24C5G—with exclusive specificities for DNA binding (wt TRE/4C5G TRE), effector recognition (cmt3/dox) and homodimer formation (class D/class B) (Dr. Christian Berens, Erlangen University). All these components were tested for the first time in eukaryotic cells to determine their regulatory properties (C. Berens, unpublished). […]

[2] = test system: dorsal root ganglion neurons; test: Functionality of the Tet-system in vivo: DOX to pregnant Sox10-rtTA mice mated with TRE-Aml1/Runx1 males; conditions: [Sox10-rtTA+TRE-Aml1/Runx1] pups; DOX in drinking water during pregnancy days 7-8 and 11.5-14
Excerpt: FIG. 8. Abnormalities in offspring of pregnant Sox10-rtTA mice which had been mated with TRE-Aml1/Runx1 males and treated with DOX during pregnancy days 7-8 and 11.5-14. Pups with the genotype [Sox10-rtTA+TRE-Aml1/Runx1] are smaller than normal and display pigment defects (upper left), megacolon (lower left), and a reduced size of dorsal root ganglia (upper and lower right).
FIG. 9. The number of dorsal root ganglion neurons is reduced compared to control (1) by about 50% in [Sox10-rtTA+TRE-Aml1/Runx1] pups from Sox10-rtTA mice, which hade been mated with TRE-Aml1/Runx1 males, and treated with DOX during pregnancy days 7-8 and 11.5-14 (2).
The functionality of the Tet-system in vivo was first confirmed. Sox10-rtTA female mice were bred with TRE-Aml1A/Runx1 males and DOX was given in the drinking water to the pregnant females pregnancy days 7 to 8 and 11.5 to 14, which correspond to the period NCSC migration. […] The number of DRG neurons was reduced by about 50% (FIG. 9).

[3] = test system: Renilla luciferase controlled by rtTA2^s-M24C5G; test: Dual Tet-system reporter assay, Renilla luciferase, HeLa HLRF33/1141 cotransfected with cTA2D-5 and rtTA2s-M24C5G; type: cell-based; conditions: HeLa cells (HLRF33/1141), 24 h incubation, 1 μg/ml
Experimental: as §1, §2

Compound | Decrease in firefly luciferase activity controlled by cTA2^D-5 [1] | Reduction of the number of dorsal root ganglion neurons compared to control [2] | Increase in expression of Renilla luciferase controlled by rtTA2^s-M24C5G [3]
C[C@H]1c2cccc(O)c2C(=O)C2=C(O)[C@]3(O)C(=O)C(C(N)=O)=C(O)[C@@H](N(C)C)[C@@H]3[C@@H](O)[C@@H]21 [DOX, doxycycline] | less than 2 fold | about 50% | about 1000 fold
NC(=O)C1=C(O)C[C@@H]2C[C@@H]3Cc4cccc(O)c4C(=O)C3=C(O)[C@]2(O)C1=O [cmt3] | ~100 fold | – | –

— patent US20120107284A1, “Stem cells for transplantation and methods for production thereof” (priority 2006, published 2012)
